Several values for one entry are separate records, joined by “and”; a condition that tells them apart may be missing. Identical values can stand only once.
Test system: IDH1(R132H) primary human AML cells
Assay: AML clearance in peripheral blood (flow cytometry, % hCD33+hCD45+ of total white cells), human AML PDx models in NSG mice
Assay type: in vivo
Conditions: for AML clearance (% hCD33 + hCD45+ (of total white cells)): QD, PO, each value one animal
Procedure: Compounds and Formulation. For in vivo studies, each test article is prepared at an appropriate concentration with vehicle. […] Compound A is prepared fresh at the appropriate concentrations with vehicle every 7 days and stored at 4° C. between doses. […] Cytarabine is prepared fresh weekly by dilution with sterile saline from stock solution of Cytarabine (injection 20 mg/mL, (Pfizer injectables')). Azacitidine (Sigma, Lot #MKBR7212) is formulated in sterile water and is prepared fresh daily immediately before dosing. In vivo human AML PDx models. […] Two models are used in the studies: […] As needed, splenocytes from tumor-bearing mice are used to propagate and expand the models, as described. Each test article is prepared as described above at an appropriate concentration with vehicle to give animals the doses tested in this study at a dosing volume of 10 μL/gram body weight. Mice receiving Compound A (PO, QD) are treated at the indicated doses for the duration of the study. The combination agents are dosed as follows: […] Treated mice are assessed in comparison to vehicle treated and naïve (non-tumor bearing) control mice. Body weight is recorded twice per week. […] AML PDx model propagation. […] Spleens are processed and splenocytes isolated as described below. Two hundred μL per subject of the splenocyte prep is injected IV (intravenous, tail vein) into recipient NSG mice. […] Once engraftment is confirmed, the mice are monitored biweekly until ready to be put on study. […] Submandibular blood is collected. Spleen/Splenocyte Processing and Prep. After excision, a spleen is weighed, and […] is placed in a standard sterile 15 mL polypropylene conical tube containing PBS, and placed on ice. […] The spleen is placed in ice cold sterile PBS in a 15 mL collection tube. The spleen is removed from the collection tube and placed in a 100 micron 50 mL conical tube cell strainer (BD Falcon #352360). The spleen is processed by gentle rubbing of the spleen tissue against the surface of the cell strainer with the end of a 5 mL syringe plunger in a circular motion. The surface of the strainer is rinsed with 10 mL room temperature sterile DPBS (HyClone SH30028) 3 times during the process. […] The cell pellet is collected by centrifugation (300×g) and washed three times with 30 mL sterile DPBS. The cells are counted and resuspended in DPBS at the desired implant concentration. Bone Marrow Collection. […] Flow cytometry analysis of human white cells. Submandibular blood samples from in vivo studies are collected. Fluor-conjugated antibody stains are added according to the manufacturer's instructions (anti-human CD33-PE (clone WM53, BD Cat #555450), anti-human CD14-APC (clone MφpP9, BD Cat #340436), anti-human CD15-V450 (clone HI98, BD Cat #561584), anti-human CD117-BV421 (clone YB5.B8, BD Cat #562434), anti-human […]7 (clone ICRF44, BD Cat #557754), anti-human […]7 (clone HI30, BD Cat #557748), and anti-human CD3-FITC (clone SK7, BD Cat #340542)). The samples are incubated for 30 minutes at room temperature, protected from light. After the incubation, 1.5 mL 1×BD Lyse/Fix (37° C., (BD #558049)) is added to each sample and incubated for 12 minutes at room temperature. The tubes are centrifuged at 300×g for 7 minutes. BD Lyse/Fix solution is aspirated and the cell pellet washed with stain/wash buffer 3 times (1 wash step consisted of: pellet resuspended in 3 mL stain/wash buffer, centrifuged at 300×g, aspirated wash). Fixed cells are then resuspended in 300 to 400 μL stain/wash buffer. Samples are analyzed on a Becton Dickinson FACSVerse Flow cytometer (Cat #651155 Serial #Z6511550447) using standard flow cytometry principles and techniques. Samples are analyzed on the same day as they are stained and fixed. Population gating and data analysis of percent population are performed in the FACSuite software on the FACSVerse cytometer. Percent population values from the data analysis are plotted in Graphpad Prism or in JMP13. […]

With `C=CC(=O)N1CCN([C@@H](CC2CC2)c2ccc([C@H](C)Nc3ncc4c(n3)N(CC)C(=O)OC4)cc2)CC1` [Compound A, 7-[[(1S)-1-[4-[(1S)-2-cyclopropyl-1-(4-prop-2-enoylpiperazin-1-yl)ethyl]phenyl]ethyl]amino]-1-ethyl-4H-pyrimido[4,5-d][1,3]oxazin-2-one] the “AML clearance (% hCD33 + hCD45+ (of total white cells))” value (Treatment day 36, 1 mg/kg Compound A, 1 mg/kg) was 16.96% and 20.94% and 15.66% and 13.65%, the “AML clearance (% hCD33 + hCD45+ (of total white cells))” value (Treatment day 36, 10 mg/kg Compound A, 10 mg/kg) was 4.67% and 3.89% and 4.32% and 2.11% and 2.39% and the “AML clearance (% hCD33 + hCD45+ (of total white cells))” value (Treatment day 43, 3.3 mg/kg Compound A, Table 2A, 3.3 mg/kg) was 59.89% and 65.62% and 61.99% and 47.87% and 52.96% and 62.25% and 27.91%. For the same compound, the “AML clearance (% hCD33 + hCD45+ (of total white cells))” value (Treatment day 47, 3.3 mg/kg Compound A, 3.3 mg/kg) was 64.21% and 29.4% and 31.38% and 63.41% and 45.19% and 20.69% and 37.68%, the “AML clearance (% hCD33 + hCD45+ (of total white cells))” value (Treatment day 50, 1 mg/kg Compound A, 1 mg/kg) was 26.13% and 48.71% and 41.07% and 42.54% and the “AML clearance (% hCD33 + hCD45+ (of total white cells))” value (Treatment day 50, 10 mg/kg Compound A, 10 mg/kg) was 2.9% and 3.66% and 5.08% and 2.11% and 1.55%. For the same compound, the “AML clearance (% hCD33 + hCD45+ (of total white cells))” value (Treatment day 58, 3.3 mg/kg Compound A, Table 2A, 3.3 mg/kg) was 67.45% and 59.45% and 67.73% and 53.95% and 44.7% and 48.88% and 71.52%, the “AML clearance (% hCD33 + hCD45+ (of total white cells))” value (Treatment day 61, 3.3 mg/kg Compound A, 3.3 mg/kg) was 68.85% and 72.89% and 47.42% and 56.98% and 82.54% and 38.58% and 74.64% and the “AML clearance (% hCD33 + hCD45+ (of total white cells))” value (Treatment day 64, 1 mg/kg Compound A, 1 mg/kg) was 51.67% and 57.72% and 55.61% and 45.53%. For the same compound, the “AML clearance (% hCD33 + hCD45+ (of total white cells))” value (Treatment day 64, 10 mg/kg Compound A, 10 mg/kg) was 0.94% and 1.66% and 1.11% and 1.55% and 0.62%, the “AML clearance (% hCD33 + hCD45+ (of total white cells))” value (Treatment day 75, 3.3 mg/kg Compound A, 3.3 mg/kg) was 67.91% and 54.26% and 56.55% and 90.69% and 45.05% and 68.73% and the “AML clearance (% hCD33 + hCD45+ (of total white cells))” value (Treatment day 77, 3.3 mg/kg Compound A, Table 2A, 3.3 mg/kg) was 74.81% and 79.27% and 43.75% and 60.02% and 75.38% and 59.74%. The “AML clearance (% hCD33 + hCD45+ (of total white cells))” value (Treatment day 78, 1 mg/kg Compound A, 1 mg/kg) was 65.17% and 75.95% and 68.32% and 56.56%, the “AML clearance (% hCD33 + hCD45+ (of total white cells))” value (Treatment day 78, 10 mg/kg Compound A, 10 mg/kg) was 0.89% and 1.72% and 0.4% and 0.45% and 0.46% and the “AML clearance (% hCD33 + hCD45+ (of total white cells))” value (Treatment day 84, 1 mg/kg Compound A, 1 mg/kg) was 98.27% and 84.52%. The “AML clearance (% hCD33 + hCD45+ (of total white cells))” value (Treatment day 89, 3.3 mg/kg Compound A, 3.3 mg/kg) was 66.75% and 67.29% and 63.26% and 92.41% and 41.16% and 62.6%, the “AML clearance (% hCD33 + hCD45+ (of total white cells))” value (Treatment day 92, 10 mg/kg Compound A, 10 mg/kg) was 0.8% and 2.36% and 0.4% and 0.19% and 0.32% and the “AML clearance (% hCD33 + hCD45+ (of total white cells))” value (Treatment day 98, 3.3 mg/kg Compound A, Table 2A, 3.3 mg/kg) was 55.63% and 73.72% and 73.42% and 85.43% and 64.03%. For the same compound, the “AML clearance (% hCD33 + hCD45+ (of total white cells))” value (Treatment day −3, 3.3 mg/kg Compound A, 3.3 mg/kg) was 17.5% and 23.88% and 24.18% and 19.46% and 14.94% and 20.14%, the “AML clearance (% hCD33 + hCD45+ (of total white cells))” value (Treatment day −8, 1 mg/kg Compound A, 1 mg/kg) was 6.97% and 3.7% and 3.2% and 7.02% and 11.07% and the “AML clearance (% hCD33 + hCD45+ (of total white cells))” value (Treatment day −8, 10 mg/kg Compound A, 10 mg/kg) was 2.43% and 7.61% and 4.1% and 6.27% and 6.53%. The “AML clearance (% hCD33 + hCD45+ (of total white cells))” value (Treatment day −19, 3.3 mg/kg Compound A, Table 2A, 3.3 mg/kg) was 6.86% and 3.77% and 4.41% and 2.93% and 5.26% and 4.84% and 2.39%, the “% peripheral blood AML cells (treatment group value)” value (shortened to “% peripheral blood AML cells”) (day 43, group B: Compound A (3.3 mg/kg), azacitidine study, vehicle 71%) was 52% and the “% peripheral blood AML cells” value (day 47, group B: Compound A (3.3 mg/kg), cytarabine study, vehicle 86%) was 39%. The “% peripheral blood AML cells” value (day 50, group B: 1 mg Compound A, vehicle 32%) was 37%, the “% peripheral blood AML cells” value (day 50, group C: 10 mg Compound A, vehicle 32%) was 2.8% and the “% peripheral blood AML cells” value (day 64, group B: 1 mg Compound A, vehicle 67%) was 51%. For the same compound, the “% peripheral blood AML cells” value (day 64, group C: 10 mg Compound A, vehicle 67%) was 1.1%, the “% peripheral blood AML cells” value (day 78, group B: 1 mg Compound A, vehicle 129%) was 65% and the “% peripheral blood AML cells” value (day 78, group C: 10 mg Compound A, vehicle 129%) was 0.66%.

— US12440493B2, “Combination therapy for treating cancer comprising substituted piperazines” (Eli Lilly and Company, priority 2020, dated 2025)
